In US8383642B2, “Spiropiperidine compounds” (Eli Lilly and Company, priority 2009, dated 2013):

How the values were obtained:
PPARα = biological target: T1, PPARα (Homo sapiens, UniProt Q07869); experiment: PPARα binding assay (SPA); details: concentrations up to 10 μM
T1 construct: made in house; host or cells: HEK293 (cell lysates)
T1 sequence (Q07869 1-468): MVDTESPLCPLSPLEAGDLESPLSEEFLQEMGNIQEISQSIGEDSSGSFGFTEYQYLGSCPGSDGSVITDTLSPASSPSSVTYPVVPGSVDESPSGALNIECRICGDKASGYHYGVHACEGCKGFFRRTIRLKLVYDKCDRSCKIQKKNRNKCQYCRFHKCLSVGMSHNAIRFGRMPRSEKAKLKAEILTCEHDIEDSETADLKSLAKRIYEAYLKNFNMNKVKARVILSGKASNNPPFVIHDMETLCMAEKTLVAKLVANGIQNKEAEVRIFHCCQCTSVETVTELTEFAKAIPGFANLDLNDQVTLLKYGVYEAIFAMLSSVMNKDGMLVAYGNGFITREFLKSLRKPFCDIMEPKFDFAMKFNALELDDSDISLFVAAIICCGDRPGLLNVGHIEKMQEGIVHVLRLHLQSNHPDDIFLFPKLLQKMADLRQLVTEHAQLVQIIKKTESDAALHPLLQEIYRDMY
T1 sequence (P19793 1-462 partner): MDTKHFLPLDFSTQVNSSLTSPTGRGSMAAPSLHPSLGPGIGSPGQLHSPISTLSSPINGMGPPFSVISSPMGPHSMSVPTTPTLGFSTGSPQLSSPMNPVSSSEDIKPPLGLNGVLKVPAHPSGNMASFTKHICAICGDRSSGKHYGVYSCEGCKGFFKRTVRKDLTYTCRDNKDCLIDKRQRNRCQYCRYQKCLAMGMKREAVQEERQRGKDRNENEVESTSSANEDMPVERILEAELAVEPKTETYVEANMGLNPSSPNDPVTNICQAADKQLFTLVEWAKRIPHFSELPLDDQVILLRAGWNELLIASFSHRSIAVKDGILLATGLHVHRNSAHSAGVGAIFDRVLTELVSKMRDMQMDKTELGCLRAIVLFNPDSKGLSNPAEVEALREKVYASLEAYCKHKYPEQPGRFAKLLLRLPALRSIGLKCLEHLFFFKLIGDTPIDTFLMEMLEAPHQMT
Description: (§1) Because GPR40 is known to be activated by ligands to PPARγ exemplified compounds are examined in PPARα, PPARδ, and PPARγ binding and functional assays to determine the selectivity of exemplified compounds for GPR40. Compounds exemplified herein are tested essentially as described below for PPAR binding and generally have binding values greater than 1000 nM with 10 μM concentrations of test compound and are thus considered negative for PPAR activity.
(§2) Binding affinities of compounds for the PPAR α, δ, and γ receptors are assessed using Scintillation Proximity Assay (SPA) technology. Biotinylated oligonucleotide Direct Repeat 2 (DR2) is used for binding the receptors to Yttrium silicate streptavidin-coated SPA beads. […] Non-specific binding is determined in the presence of 10,000 nM of the unlabeled PPAR α/δ dual agonist reference compound for the alpha and delta receptor assays and the PPARγ agonist reference compound for the gamma receptor assay. The binding reaction (100 μl per well in a 96 well [Costar 3632] plate) is incubated for 10 h and counted disintegration per minutes (dpm) on a Wallac Microbeta. Receptor binding affinity (IC50) for the compounds is determined by fitting an 11 point concentration-response curve with a 4-parameter logistic equation. Ki, is determined from the IC50 using the Cheng-Prussoff equation and Kd determined by saturation binding. […]

PPARγ = biological target: T2, PPARγ (Homo sapiens, UniProt P37231); experiment: PPARγ binding assay (SPA); parameters: made in house; host or cells: HEK293 (cell lysates); details: concentrations up to 10 μM
T2 sequence (P37231 1-505): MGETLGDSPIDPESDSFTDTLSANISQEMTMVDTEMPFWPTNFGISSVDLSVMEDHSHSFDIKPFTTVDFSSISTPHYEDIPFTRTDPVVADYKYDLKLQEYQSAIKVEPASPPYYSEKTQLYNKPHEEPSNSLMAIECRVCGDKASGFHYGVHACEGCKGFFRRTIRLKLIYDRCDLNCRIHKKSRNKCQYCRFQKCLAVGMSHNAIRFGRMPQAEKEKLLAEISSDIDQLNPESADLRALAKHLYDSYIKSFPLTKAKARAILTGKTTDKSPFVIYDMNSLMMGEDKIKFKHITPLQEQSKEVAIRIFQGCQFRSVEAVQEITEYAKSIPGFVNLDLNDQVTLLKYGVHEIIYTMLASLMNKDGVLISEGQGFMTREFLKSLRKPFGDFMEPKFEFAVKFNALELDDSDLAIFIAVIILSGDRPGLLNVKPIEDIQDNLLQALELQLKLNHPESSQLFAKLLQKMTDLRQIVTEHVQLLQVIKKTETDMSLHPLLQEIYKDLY
T2 sequence (P19793 1-462 partner): T1 sequence (P19793 1-462 partner)
Description: as §1, §2

human GPR40 = biological target: T3, human GPR40 (Homo sapiens, UniProt O14842); experiment: Calcium Flux Primary Assay; format: cell-based
T3 construct: expressed in transfected cells; host or cells: HEK293
T3 sequence (O14842 whole entry): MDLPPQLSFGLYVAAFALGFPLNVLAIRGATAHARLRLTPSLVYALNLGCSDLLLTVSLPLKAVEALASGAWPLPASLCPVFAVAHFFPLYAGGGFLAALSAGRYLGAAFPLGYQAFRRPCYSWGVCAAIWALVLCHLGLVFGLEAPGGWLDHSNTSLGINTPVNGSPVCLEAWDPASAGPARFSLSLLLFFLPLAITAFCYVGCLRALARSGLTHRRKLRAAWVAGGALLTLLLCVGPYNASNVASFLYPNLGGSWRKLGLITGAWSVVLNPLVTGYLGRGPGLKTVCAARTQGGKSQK
Description: HEK293 cells over expressing the human GPR40 cDNA maintained in Dulbecco's modified Eagle's medium with F12 medium in 3:1 ratio supplemented with 10% FBS and 800 μg/ml geneticin at 37° C. and 5% CO2 are employed for the study. Agonist assays are performed using a Calcium 4 Dye assay kit (Molecular Devices) in the presence (0.1%) or absence of fatty acid free BSA in the assay buffer (1×HBSS (Hank's Balanced Salt Solution) & 20 mM HEPES (4-(2-hydroxyethyl)-1-piperazineethanesulfonic acid). Receptor activation is measured as an increase in intracellular calcium using the Fluorometric Imaging Plate Reader (FLIPR). Maximum change in fluorescence over the base line is used to determine agonist response. EC50 (effective concentration at half the maximal response) value of the compound is calculated using Excel Fit software (version 4; IDBS) by plotting concentration vs relative fluorescence units (RFUs).

binding detected (PPARα): no binding is detected | binding detected (PPARγ): no binding is detected | EC50 (human GPR40; HEK293 cells over expressing human GPR40, FLIPR calcium): 186 nM | efficacy (human GPR40; maximal response compared to the natural ligand, linoleic acid): 91+/−10%
Compound: CC#C[C@@H](CC(=O)O)c1ccc(OCc2ccc(CN3CCC4(C=Cc5ccccc54)CC3)cc2)cc1 [Example 1, (3S)-3-(4-{[4-(1′H-Spiro[indene-1,4′-piperidin]-1′-ylmethyl)benzyl]oxy}phenyl)hex-4-ynoic acid]
